Measured values as given in patent US20060161221A1, “Activation of calcium-mediated cell functions in cells and tissues, including aggregation of human platelets, by nanosecond pulsed electric fields” (priority 2004, published 2006).
Entries after “also recorded” stand apart in the source; their conditions may differ.

Key:
Assay type in all cases: cell-based, human
HL-60 cells [1] = assay: Fura-2 measurement of agonist-induced calcium mobilization with and without BAPTA, media without calcium
Text: (§1) Cell culture—Non-transformed HL-60 and Jurkat cells were obtained from and cultured as recommended by American Type Culture Collection (ATCC, Rockville, Md.) as previously described (Beebe, S. J., et al. (2002). IEEE Trans. Plasma Sci. 30:1 Part 2, 286-292; Beebe, S. J., et al. (2003). FASEB J. 17, 1493-1495). Cells were removed from log phase growth and suspended in Hanks Balanced Salt Solution (HBSS) in the presence or absence of Ca^2+ and Mg^2+. When calcium was omitted, cells were washed several times in buffer without added calcium. In other experiments, the calcium chelator BAPTA was added to chelate intracellular calcium. Cells were loaded with BAPTA-AM and washed in HBSS before the addition of agonists.
To be certain that BAPTA was able to chelate all intracellular calcium, two agents that mobilize calcium by two different mechanisms were used and the calcium concentration in the cell was directly measured using the fluorescent calcium indicator fura-2. Cells were loaded with Fura2 and BAPTA and tested in media without calcium. The first agonist tested was the purinergic agonist ATP, which leads to the release of intracellular calcium through a phospholipase C— and IP3-mediated mechanism through the IP3 receptor in the endoplasmic reticulum (Berridge, M. J. et al. (1998) Nature 395, 645-648). This is followed by an influx of calcium through store-operated calcium channels in the plasma membrane. […] The second agonist tested was cyclopiazonic acid (CPA), which causes increases in calcium by inhibiting the calcium-ATPase in the endoplasmic reticulum. This pump replenishes the intracellular calcium stores after actions by calcium-mobilizing agents. […] Thus, BAPTA inhibited rapid and transient as well as slow and sustained calcium mobilization by agents that acted on a plasma membrane receptor and an endoplasmic reticulum calcium pump.

HL-60 cells [2] = assay: Caspase activation (z-VAD-FITC, flow cytometry) in nsPEF-exposed, BAPTA-loaded HL-60 cells; conditions: pulses at 10, 60 and 300 ns, equalized energy density
Experimental: Experiments with HL-60 cells in the presence and absence of BAPTA cells were carried out as described for Jurkat cells in FIG. 2 (n=4).
as §1, with “Cells were loaded with BAPTA-AM and washed in HBSS before the addition of agonists.” left out
(§2) Determination of caspase activation in vivo—Caspase activity was determined in vivo using a fluorescent-labeled, irreversible caspase inhibitor, VAD-fmk-FITC (Val-Ala-Asp-fluoromethylketone labeled with fluoroisothiocyanate) that is specific for the active site of the enzyme (see Beebe et al., 2003). Briefly, cells were exposed to nsPEF, incubated in the presence of the fluorescent caspase inhibitor for 20 minutes, washed to remove background fluorescence and subjected to flow cytometry. Values are expressed as the geometric mean FITC fluorescence. […]

Jurkat cells = assay: Caspase activation (z-VAD-FITC, flow cytometry) in nsPEF-exposed, BAPTA-loaded Jurkat cells; conditions: energy density ~1.7 J/cc
Experimental: FIG. 2 describes the effect of intracellular calcium chelation by BAPTA on caspase activation in human Jurkat cells. Jurkat cells were incubated with BAPTA-AM ([…]) in Hanks Balanced salt solution (HBSS) with calcium for 30 minutes and washed in HBSS with calcium. The BAPTA loaded cells were exposed to nsPEF as indicated. The electric fields were adjusted to provide a similar energy density (˜1.7 J/cc) under all conditions. After exposure to nsPEF, the cells were incubated with a cell permeable, irreversible inhibitor of active caspases, z-VAD-FITC for 20 minutes before analysis by flow cytometry (Beebe et al., (2003) FASEB J 17, 1493-1495). The values for caspase activity are expressed as the geometric mean z-VAD-FITC fluorescence determined in 15,000 individual cells. […]
as §2

HL-60 cells [3] = assay: Fluorometric analysis (fura-2) of intracellular free calcium [Ca2+]i in HL-60 cells; conditions: for change in [Ca2+]i: 0.1 μM
Experimental: Cell culture-Non-transformed HL-60 cells were used for this study and were obtained from American Type Culture Collection (ATCC, Rockville, Md.). […] 2 mM CaCl2 was added to this buffer when loading cells with fluorescent indicators unless otherwise stated. In some experiments extracellular calcium was omitted by washing the cells several times in the same physiological buffer without added calcium. […] Post pulse, the cell suspension was removed from the pulsing cuvette and assayed. Fluorometric Analysis of Internal Calcium Response-To analyze the response of a greater number of cells, the fluorescent indicator fura-2 (Molecular Probes, Eugene, Oreg.) was used with a fluorometer. HL-60 cells were incubated with fura-2/AM (2 μM) in the physiological buffer described above containing 2 mM calcium for 45 minutes at 37° C. The cells were then washed and resuspended in calcium-free or calcium-containing buffer at a concentration of 7.7×10^6 cells/ml. […] Pulser® cuvettes could not be used to perform calcium measurements in the fluorometer because of the aluminum plates, which act to block either the excitation light or the emission light depending on the placement of the cuvette in the fluorometer. Therefore, the cells were first placed in the fluorometer cuvette, to obtain a baseline reading, cells were then removed from the fluorometer cuvette with a Pasteur pipette and added to the Pulser® cuvette.

[4] = cells loaded with Fura2 and BAPTA

In the case of `Nc1ncnc2c1ncn2[C@@H]1O[C@H](COP(=O)(O)OP(=O)(O)OP(=O)(O)O)[C@@H](O)[C@H]1O` [ATP], the “calcium mobilization (fura-2)” value (HL-60 cells [1]; absence of BAPTA) is reported as “rapid and transient increase”.

With `O=C(O)CN(CC(=O)O)c1ccccc1OCCOc1ccccc1N(CC(=O)O)CC(=O)O` [BAPTA] the “effect on nsPEF-induced caspase activity” value (HL-60 cells [2]) was “did not significantly affect”, the “effect on ATP-induced calcium mobilization” value (HL-60 cells [1]; [4]) was “completely inhibited” and the “effect on CPA-mediated calcium mobilization” value (HL-60 cells [1]; [4]) was “completely inhibited”. The “effect on nsPEF-induced caspase activation” value (Jurkat cells; pulses at 10 and 60 ns) was “no significant effect” and the “reduction of nsPEF-induced caspase activity” value (Jurkat cells; pulses with 300 ns durations) was “about 25%”.

In the case of `O=c1ccn([C@@H]2O[C@H](COP(=O)(O)OP(=O)(O)OP(=O)(O)O)[C@@H](O)[C@H]2O)c(=O)[nH]1` [UTP], the “[Ca2+]i on addition of 1.0 mM calcium to treated cells (capacitative calcium entry)” value (HL-60 cells [3]; 10 μM UTP in low calcium-containing buffer, then 1.0 mM calcium added) is reported as “rapid rise”, the “reduction of peak [Ca2+]i effect when added after one 60 ns 15 kV/cm pulse” value (HL-60 cells [3]; 10 μM, extracellular calcium deficient, vs UTP added before a pulse) is reported as “approximately 60%” and the “increase in [Ca2+]i” value (HL-60 cells [3]; 10 μM, extracellular calcium present) is reported as “approximately 300 nM”. For the same molecule, the “effect on [Ca2+]i compared with 10 μM” value (HL-60 cells [3]; 100 μM, extracellular calcium present) was “did not produce any larger effect”, the “effect on [Ca2+]i as % of that seen with 10 μM UTP” value (HL-60 cells [3]; 0.1 M (so in the source), extracellular calcium present) was “approximately 20%” and the “increase in [Ca2+]i” value (HL-60 cells [3]; absence of extracellular calcium, transient) was “approximately 50 nM”. The “[Ca2+]i increase by one 15 kV/cm pulse after the agonist, as % of pulse before agonist addition” value (HL-60 cells [3]; extracellular calcium deficient) was “approximately 25%”, the “reduction of [Ca2+]i increase by one 15 kV/cm pulse given after the agonist” value (HL-60 cells [3]; extracellular calcium present) was “approximately 65%” and the “reduction of [Ca2+]i effect when added after one 15 kV/cm pulse” value (HL-60 cells [3]; extracellular calcium present, vs UTP by itself) was “approximately 60%”.

`COc1ccc([C@@H]2Sc3ccccc3N(CCN(C)C)C(=O)[C@@H]2OC(C)=O)cc1` [diltiazem] was tested, and the “effect on nsPEF-induced increases in [Ca2+]i” value (HL-60 cells [3]; HL-60 cells) was “no effect”.

With `C/C=C(/C)C(=O)O[C@H]1C(C)=C2[C@H]([C@@H]1OC(=O)CCCCCCC)[C@@](C)(OC(C)=O)C[C@H](OC(=O)CCC)[C@@]1(O)[C@H]2OC(=O)[C@@]1(C)O` [thapsigargin] the “[Ca2+]i response when added after one 15 kV/cm pulse” value (HL-60 cells [3]; 0.1 μM at approximately 50 seconds, 1 mM extracellular calcium) was “did not increase”, the “change in [Ca2+]i” value (HL-60 cells [3]; extracellular calcium absent) was “smaller and more transient increase” and the “change in [Ca2+]i” value (HL-60 cells [3]; extracellular calcium present) was “prolonged increase; also recorded: gradual and sustained increase”. For the same molecule, the “reduction of [Ca2+]i increase by one 15 kV/cm pulse given after the agonist” value (HL-60 cells [3]; extracellular calcium present) was “approximately 85%”.
